The values below come from patent publication US20030190671A1, “Use of metabolic phenotyping in individualized treatment with amonafide” (McGill University, priority 2001, published 2003).

The nature of data set [1]: Stability of reconstituted amonafide solution. The format is physicochemical. How it is done: Intact vials should be stored under refrigeration (2-8° C.). […] However, the reconstituted solution contains no antibacterial preservatives and should be used immediately. It is advised that the reconstituted product be discarded 8 hours after initial entry.
Add the appropriate dose of amonafide to a bag of 100 mL of normal saline prior to administration. Amonafide is very unstable in dextrose-containing solutions and these should not be used for reconstitution or for administration.

For data set [2], the system named is L1210 leukemia cells lines. Particulars: cited from earlier work.
In data set [3] the test system is p388 leukemia cells lines. Particulars: cited from earlier work.
Data set [4] has as its system B16 melanoma. The conditions noted are these: cited from earlier work.
The subject of data set [5] is M5076 sarcoma cell line. Particulars: cited from earlier work.
The conditions of data set [6]: mice, dogs, and rats; cited from earlier work.
For data set [7] the following is noted: dogs; single-bolus and daily for 5 days schedules, highest doses administered; cited from earlier work.
The conditions of data set [8]: cited from earlier work.
The conditions of data set [9]: human; cited from earlier work.
The test system of data set [10] is NAT2. The conditions noted are these: cancer individuals phenotyped with caffeine; cited from earlier work.
Data set [11] deals with T1, CYP1A2 (Homo sapiens, UniProt P05177).
T1 sequence (P05177 1-516): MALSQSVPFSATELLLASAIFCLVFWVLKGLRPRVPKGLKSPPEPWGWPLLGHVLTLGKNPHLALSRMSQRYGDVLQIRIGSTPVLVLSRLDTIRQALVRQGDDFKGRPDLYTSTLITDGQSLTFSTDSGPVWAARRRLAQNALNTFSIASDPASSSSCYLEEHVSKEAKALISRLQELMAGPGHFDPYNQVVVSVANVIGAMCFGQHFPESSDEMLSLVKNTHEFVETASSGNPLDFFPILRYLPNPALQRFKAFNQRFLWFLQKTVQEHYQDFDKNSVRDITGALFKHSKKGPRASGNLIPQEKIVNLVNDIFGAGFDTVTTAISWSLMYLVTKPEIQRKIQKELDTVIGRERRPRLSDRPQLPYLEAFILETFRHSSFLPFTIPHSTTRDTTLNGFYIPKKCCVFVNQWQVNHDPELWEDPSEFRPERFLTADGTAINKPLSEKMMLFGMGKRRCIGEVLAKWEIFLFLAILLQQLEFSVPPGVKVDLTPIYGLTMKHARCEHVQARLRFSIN
Particulars: in vitro; cited from earlier work.

Data set [12] deals with non-small cell lung cancer, prostate cancer and breast cancer. Particulars: cited from earlier work.

Where two headings read alike, the source gives them in different places.

For the compound `CN(C)CCN1C(=O)c2cccc3cc(N)cc(c23)C1=O` [amonafide], the “stability in dextrose-containing solutions” value in [1] is given as “very unstable”. In addition, the “decomposition of reconstituted solution” value in data set [1] (reconstituted in normal saline, over 14 days at room temperature or under refrigeration) is reported as “no decomposition”. Further, in data set [2], the “activity against L1210 leukemia” value was “significant activity”. For the same compound, in data set [3], the “activity against p388 leukemia” value is on record as “significant activity”. Also, the “activity against B16 melanoma” value in data set [4] is listed as “significant activity”. For the same compound, the “activity against M5076 sarcoma” value in data set [5] is “significant activity”. In addition, the preclinical toxicity result in data set [6] was “reversible hematopoietic, gastrointestinal, renal and hepatic toxicity”. The neurotoxicity entry in [7] was “signs indicative of neurotoxicity”. Moreover, the “maximum tolerated dose (MTD)” value in data set [8] (bolus dose, OSU study (Leiby et al.)) is recorded as 1125 mg/m^2. Besides, the “maximum tolerated dose (MTD)” value in data set [8] (daily times five every 21 days, MDA (Legha et al.)) was 400 mg/m^2. For the same compound, the “maximum tolerated dose (MTD)” value in [8] (daily times five every 21 days, OSU (Leiby et al.)) is listed as 250 mg/m^2. Moreover, the dose-limiting toxicity entry in data set [8] (single bolus and daily times five schedules) is given as “myelosuppression”. Further, the “maximum tolerated dose (MTD)” value in data set [8] (single bolus, UTSA (Saez et al.)) is listed as 800 mg/m^2. In addition, in data set [9], the “binding to body tissues” value is “highly bound to body tissues” and the volume of distribution entry is reported as “large”. For the same compound, in data set [10], the “area under the plasma concentration-time curve, fast vs. slow acetylators” value is “significantly greater in fast acetylators” and the “toxicity (myelosuppression), fast vs. slow acetylators” value is “fast acetylators had greater toxicity than slow acetylators”. The “substrate of CYP1A2” value in data set [11] was “substrate for CYP1A2”. Besides, in data set [12] (human, in vivo), the “antitumor activity in non-small cell lung cancer, prostate cancer and breast cancer” value is “antitumor activity”; the “most common dose-limiting side effect” value was “granulocytopenia”. Moreover, in [12] (previous clinical studies), the “neutropenia, day of nadir counts” value is 12 to 15 days and the “neutropenia, day of recovery” value is about 21 days.
